Data taken from BigSolDB 2.1.

CC(S)C(=O)NCC(=O)O (stereo not given)
solubility (mole fraction)
Conditions | 273.15 K | 278.15 K | 283.15 K | 288.15 K | 293.15 K | 298.15 K | 303.15 K | 308.15 K | 313.15 K | 318.15 K
in acetonitrile | 0.00946 | 0.0105 | 0.0115 | 0.0126 | 0.0138 | 0.0151 | 0.0165 | 0.018 | 0.0196 | 0.0212
in isobutanol | 0.0119 | 0.0141 | 0.0166 | 0.0191 | 0.0217 | 0.0247 | 0.0281 | 0.0321 | 0.0365 | 0.0413
in n-butanol | 0.0251 | 0.0311 | 0.0379 | 0.0451 | 0.0529 | 0.0614 | 0.0709 | 0.0811 | 0.0918 | 0.103
in toluene | 0.00033 | 0.00037 | 0.00041 | 0.00045 | 0.0005 | 0.00056 | 0.00062 | 0.00069 | 0.00077 | 0.00087
